Test results as given in PubChem BioAssay (NCI).
“And” between values parts separate entries of the source, which are not always exact repeats. Equal values may be shown once.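 Step 1: Grow cells in 96-well plates. Step 2: Expose to compound for 48 hours at 5 concentrations. Step 3: Interpolate endpoints linearly; if unreached, use highest concentration. Abbreviation: GI50, concentration required for 50% inhibition of growth. TGI marks complete inhibition of growth.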

System: OVCAR-4 ovarian
Test: growth of human tumour cells (NCI), 48 h

Structure (SMILES) | GI50 | TGI
CN(C)c1ccc(/C=C\C2=[N+](C)c3ccccc3C2(C)C)cc1 | 0.981 µM | > 59.4 µM
C[N+](C)(C)CC(=O)N/N=C(/CC(=O)CC(C1=C(O)c2ccccc2OC1)c1ccccc1)C(=O)Nc1cccc(Cl)c1 (configuration not stated) |  | > 100 µM
O=C1/C(=C/c2ccc(O)c(O)c2)CCC/C1=C\c1ccc(O)c(O)c1 |  | 41.9 µM
COC(=O)/C=C1\S/C(=N\NC(=O)c2cc3ccc2/C=C\c2ccc(cc2)/C=C\3)N(c2ccccc2)C1=O | 3.17 µM | 9.88 µM
COC([CH2][Hg][n]1cnc2c1c(=O)n(C)c(=O)n2C)CN1C(=O)c2ccccc2S1(=O)=O (configuration not stated) | > 100 µM | > 100 µM
CN1CCCCC1CCN1c2ccccc2Sc2ccc(Cl)cc21 (configuration not stated) | 3.66 µM | 16 µM
C=C(C)C(OC)C(O)CC1(C)CC(O)CC(C)(C2CCC3OC(C4(C)CCC(Br)C(C)(C)O4)CCC3(C)O2)O1 (configuration not stated) | 23.1 µM | 44.2 µM
Cc1cc(-c2nc(C(=O)Nc3cc4oc(N5CCOCC5)nc4nc3N3CC[C@@H](O)C3)co2)ccn1 | 32.1 µM | > 100 µM
Cc1ccc(Cl)c2c(N=Nc3ccccc3[N+](=O)[O-])c(O)[nH]c12 |  | > 100 µM
FC(F)(F)c1cccc(Nc2nc(-c3ccccc3)nc3ncccc23)c1 | 8.05 µM | 45.6 µM
O=C(Nc1ccccc1)c1c(O)[nH]c(=S)[nH]c1=O | 87.2 µM | 103 µM and > 250 µM
OC1CSSC1Cn1cnc2c(Nc3ccc(OCc4cccc(F)c4)c(Cl)c3)ncnc21 (configuration not stated) | 1.27 µM | 8.53 µM
C=CCOc1ccc2c(C)cc(=O)oc2c1C |  | > 100 µM
Nc1c(C(=O)c2cccc(CCS(N)(=O)=O)c2)cnn1-c1ccc(F)cc1 | > 25 µM | > 25 µM
C=CCO[C@H]1CO[C@H]2[C@@H]1OC[C@@H]2Oc1ccc(Nc2ccnc(Nc3ccc(O[C@H]4CO[C@H]5[C@@H]4OC[C@@H]5OCC=C)c(Cl)c3)n2)cc1Cl | 1.57 µM | 2.93 µM
C[C@@H](Oc1cc(-n2cnc3ccc(CN4CCN(C)CC4)cc32)sc1C(N)=O)c1ccccc1C(F)(F)F | 0.817 µM and 0.98 µM | 17.5 µM and > 10 µM
O=C(CCNC12CC3CC(CC(C3)C1)C2)c1ccccc1 |  | > 100 µM
COc1cccc(-c2cc(-c3cccc(NS(C)(=O)=O)c3)nc(N)c2C#N)c1O | 0.61 µM | > 100 µM
Cc1ccsc1C(=S)Nc1ccc(Cl)c(/C=N/OC(C)(C)C)c1 |  | > 100 µM
CC(C)=CCC\C(C)=C/C=C/C(C)=C\C=C\C(C)=C/C=C/C=C(C)\C=C\C=C(C)/C=C/C=C(/C)CCC=C(C)C |  | > 100 µM
NC(N)=NS(=O)(=O)c1ccc(Nc2c3ccccc3nc3c(C(=O)NCCO)cccc23)cc1 | 25.3 µM | 
COc1cccc(C2c3cc4c(cc3OC(C)(N3CCCC3)C2C)OCO4)c1O (configuration not stated) |  | > 100 µM
O=C1NC(=NCCc2cccc(F)c2)S/C1=C\c1ccc2ncccc2c1 | > 25 µM | > 25 µM
COc1cc(/C=N\NC(=O)CN2CCN(c3cc4c(cc3F)c(=O)c(C(=O)N/N=C/c3cc(OC)c(OC)c(OC)c3)cn4C3CC3)CC2)cc(OC)c1OC | 0.379 µM | > 100 µM
CC1CCc2nc[nH]c(=O)c21 (configuration not stated) | > 100 µM | > 100 µM
Cc1ccc(NC(=O)Nc2ccc(-c3cccnc3)cc2N2CCC(CO)CC2)cc1 | 3.53 µM | > 100 µM

System: NCI-H23 lung
Test: growth of human tumour cells (NCI), 48 h

Structure (SMILES) | GI50 | TGI
CN(C)c1ccc(/C=C\C2=[N+](C)c3ccccc3C2(C)C)cc1 | 0.299 µM | 23.7 µM
COc1cc2c(c3oc4c(O)cccc4c(=O)c13)CC(C(C)(O)CO)O2 (configuration not stated) |  | > 100 µM
CC(=O)OC1OC([C@@H]2c3cccc(O)c3C(=O)c3c(O)cc(C)cc32)C(O)C(O)C1O (some centres not stated) | < 0.0199 µM | 0.216 µM
C[N+](C)(C)CC(=O)N/N=C(/CC(=O)CC(C1=C(O)c2ccccc2OC1)c1ccccc1)C(=O)Nc1cccc(Cl)c1 (configuration not stated) |  | > 100 µM
O=C1/C(=C/c2ccc(O)c(O)c2)CCC/C1=C\c1ccc(O)c(O)c1 |  | 11.3 µM
COC(=O)/C=C1\S/C(=N\NC(=O)c2cc3ccc2/C=C\c2ccc(cc2)/C=C\3)N(c2ccccc2)C1=O | 1.95 µM | 4.15 µM
COC([CH2][Hg][n]1cnc2c1c(=O)n(C)c(=O)n2C)CN1C(=O)c2ccccc2S1(=O)=O (configuration not stated) | > 100 µM | > 100 µM
CN1CCCCC1CCN1c2ccccc2Sc2ccc(Cl)cc21 (configuration not stated) | 10.7 µM | 26.8 µM
C=C(C)C(OC)C(O)CC1(C)CC(O)CC(C)(C2CCC3OC(C4(C)CCC(Br)C(C)(C)O4)CCC3(C)O2)O1 (configuration not stated) | 16 µM | 34.6 µM
Cc1cc(-c2nc(C(=O)Nc3cc4oc(N5CCOCC5)nc4nc3N3CC[C@@H](O)C3)co2)ccn1 | 28.1 µM | > 100 µM
Cc1ccc(Cl)c2c(N=Nc3ccccc3[N+](=O)[O-])c(O)[nH]c12 |  | > 100 µM
FC(F)(F)c1cccc(Nc2nc(-c3ccccc3)nc3ncccc23)c1 | 5.03 µM | 28.4 µM
O=C(Nc1ccccc1)c1c(O)[nH]c(=S)[nH]c1=O | 83.6 µM | 82.6 µM and > 250 µM
OC1CSSC1Cn1cnc2c(Nc3ccc(OCc4cccc(F)c4)c(Cl)c3)ncnc21 (configuration not stated) | 0.689 µM | 1.73 µM
C=CCOc1ccc2c(C)cc(=O)oc2c1C |  | > 100 µM
Nc1c(C(=O)c2cccc(CCS(N)(=O)=O)c2)cnn1-c1ccc(F)cc1 | > 25 µM | > 25 µM
C=CCO[C@H]1CO[C@H]2[C@@H]1OC[C@@H]2Oc1ccc(Nc2ccnc(Nc3ccc(O[C@H]4CO[C@H]5[C@@H]4OC[C@@H]5OCC=C)c(Cl)c3)n2)cc1Cl | 1.79 µM | 3.71 µM
C[C@@H](Oc1cc(-n2cnc3ccc(CN4CCN(C)CC4)cc32)sc1C(N)=O)c1ccccc1C(F)(F)F | < 0.0114 µM and 0.0145 µM | 13.2 µM and > 10 µM
O=C(CCNC12CC3CC(CC(C3)C1)C2)c1ccccc1 |  | 48.8 µM
COc1cccc(-c2cc(-c3cccc(NS(C)(=O)=O)c3)nc(N)c2C#N)c1O | 0.341 µM | > 100 µM
Cc1ccsc1C(=S)Nc1ccc(Cl)c(/C=N/OC(C)(C)C)c1 |  | > 100 µM
NC(N)=NS(=O)(=O)c1ccc(Nc2c3ccccc3nc3c(C(=O)NCCO)cccc23)cc1 | 26.3 µM | 
COc1cccc(C2c3cc4c(cc3OC(C)(N3CCCC3)C2C)OCO4)c1O (configuration not stated) |  | 8.9 µM
O=C1NC(=NCCc2cccc(F)c2)S/C1=C\c1ccc2ncccc2c1 | 19.2 µM | > 25 µM
COc1cc(/C=N\NC(=O)CN2CCN(c3cc4c(cc3F)c(=O)c(C(=O)N/N=C/c3cc(OC)c(OC)c(OC)c3)cn4C3CC3)CC2)cc(OC)c1OC | 0.237 µM | 0.605 µM
CC1CCc2nc[nH]c(=O)c21 (configuration not stated) | > 100 µM | > 100 µM

System: SK-MEL-5 melanoma
Test: growth of human tumour cells (NCI), 48 h

Structure (SMILES) | GI50 [µM] | TGI
CN(C)c1ccc(/C=C\C2=[N+](C)c3ccccc3C2(C)C)cc1 | 0.715 | 3 µM
COc1cc2c(c3oc4c(O)cccc4c(=O)c13)CC(C(C)(O)CO)O2 (configuration not stated) |  | > 100 µM
CC(=O)OC1OC([C@@H]2c3cccc(O)c3C(=O)c3c(O)cc(C)cc32)C(O)C(O)C1O (some centres not stated) | < 0.0119 | 0.0294 µM
C[N+](C)(C)CC(=O)N/N=C(/CC(=O)CC(C1=C(O)c2ccccc2OC1)c1ccccc1)C(=O)Nc1cccc(Cl)c1 (configuration not stated) |  | > 100 µM
O=C1/C(=C/c2ccc(O)c(O)c2)CCC/C1=C\c1ccc(O)c(O)c1 |  | 3.81 µM
COC(=O)/C=C1\S/C(=N\NC(=O)c2cc3ccc2/C=C\c2ccc(cc2)/C=C\3)N(c2ccccc2)C1=O | 7.56 | > 100 µM
COC([CH2][Hg][n]1cnc2c1c(=O)n(C)c(=O)n2C)CN1C(=O)c2ccccc2S1(=O)=O (configuration not stated) | > 100 | > 100 µM
CN1CCCCC1CCN1c2ccccc2Sc2ccc(Cl)cc21 (configuration not stated) | 1.7 | 3.25 µM
C=C(C)C(OC)C(O)CC1(C)CC(O)CC(C)(C2CCC3OC(C4(C)CCC(Br)C(C)(C)O4)CCC3(C)O2)O1 (configuration not stated) | 13.2 | 28.4 µM
Cc1cc(-c2nc(C(=O)Nc3cc4oc(N5CCOCC5)nc4nc3N3CC[C@@H](O)C3)co2)ccn1 | 45.7 | > 100 µM
FC(F)(F)c1cccc(Nc2nc(-c3ccccc3)nc3ncccc23)c1 | 4.04 | 30.8 µM
O=C(Nc1ccccc1)c1c(O)[nH]c(=S)[nH]c1=O | 40.5 | 46 µM and 85.2 µM
OC1CSSC1Cn1cnc2c(Nc3ccc(OCc4cccc(F)c4)c(Cl)c3)ncnc21 (configuration not stated) | 0.733 | 2.88 µM
C=CCOc1ccc2c(C)cc(=O)oc2c1C |  | > 100 µM
Nc1c(C(=O)c2cccc(CCS(N)(=O)=O)c2)cnn1-c1ccc(F)cc1 | > 16.7 | > 25 µM
